Measured values reported in PubChem BioAssay (NCI).
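Exposure lasted 48 hours, with cells grown in 96-well plates and compounds tested at five concentrations. GI50 is the concentration that inhibits growth by half. TGI marks complete inhibition of growth.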

Assays:
Experiment in all cases: NCI tumour cell line growth inhibition, 48 h
DU-145 prostate = test system: DU-145 prostate
MDA-MB-231 breast = test system: MDA-MB-231 breast
BT-549 breast = test system: BT-549 breast
RPMI-8226 leukemia = test system: RPMI-8226 leukemia
MALME-3M melanoma = test system: MALME-3M melanoma
A498 renal = test system: A498 renal
NCI/ADR-RES ovarian = test system: NCI/ADR-RES ovarian
SK-MEL-2 melanoma = test system: SK-MEL-2 melanoma
MDA-MB-435 = test system: MDA-MB-435
UACC-62 melanoma = test system: UACC-62 melanoma
UACC-257 melanoma = test system: UACC-257 melanoma
HCC-2998 colon = test system: HCC-2998 colon
SW-620 colon = test system: SW-620 colon
TK-10 renal = test system: TK-10 renal
HCT-15 colon = test system: HCT-15 colon
IGROV1 ovarian = test system: IGROV1 ovarian
HOP-92 NSCLC = test system: HOP-92 NSCLC
MCF7 breast = test system: MCF7 breast
T-47D breast = test system: T-47D breast
SF-268 CNS = test system: SF-268 CNS
OVCAR-3 ovarian = test system: OVCAR-3 ovarian
ACHN renal = test system: ACHN renal
K-562 leukemia = test system: K-562 leukemia
OVCAR-8 ovarian = test system: OVCAR-8 ovarian
UO-31 renal = test system: UO-31 renal
EKVX NSCLC = test system: EKVX NSCLC
786-0 renal = test system: 786-0 renal
HS 578T breast = test system: HS 578T breast
COLO 205 colon = test system: COLO 205 colon

## CN(c1ccc(F)cc1)S(=O)(=O)c1ccc(-c2cnc(C3CC3)o2)cc1
DU-145 prostate
  GI50: 279 nM
  TGI: > 76700 nM
MDA-MB-231 breast
  GI50: 404 nM
  TGI: > 39000 nM
BT-549 breast
  GI50: 410 nM
  TGI: 14100 nM
RPMI-8226 leukemia
  GI50: 60.6 nM
  TGI: 2510 nM
MALME-3M melanoma
  GI50: 11600 nM
  TGI: 47600 nM
A498 renal
  GI50: 43 nM
  TGI: 493 nM
NCI/ADR-RES ovarian
  GI50: 57.4 nM
  TGI: 21400 nM
SK-MEL-2 melanoma
  GI50: 3740 nM
  TGI: 40900 nM
MDA-MB-435
  GI50: 28.4 nM
  TGI: 94.8 nM
UACC-62 melanoma
  GI50: 48.1 nM
  TGI: 19500 nM
UACC-257 melanoma
  GI50: 11100 nM
  TGI: 52600 nM
HCC-2998 colon
  GI50: 375 nM
  TGI: > 50100 nM
SW-620 colon
  GI50: 66.4 nM
  TGI: > 100000 nM
TK-10 renal
  GI50: 26400 nM
  TGI: > 100000 nM
HCT-15 colon
  GI50: 49.9 nM
  TGI: > 50000 nM
IGROV1 ovarian
  GI50: 66 nM
  TGI: > 100000 nM
HOP-92 NSCLC
  GI50: 1210 nM
  TGI: 11300 nM
MCF7 breast
  GI50: 39.6 nM
  TGI: 50900 nM
T-47D breast
  GI50: 75.9 nM
  TGI: 71300 nM
SF-268 CNS
  GI50: 1120 nM
  TGI: > 100000 nM
OVCAR-3 ovarian
  GI50: 41.5 nM
  TGI: 15800 nM
ACHN renal
  GI50: 274 nM
  TGI: > 73100 nM
K-562 leukemia
  GI50: 39.5 nM
  TGI: > 43800 nM
OVCAR-8 ovarian
  GI50: 553 nM
  TGI: > 100000 nM
UO-31 renal
  GI50: 766 nM
  TGI: > 94100 nM
EKVX NSCLC
  GI50: 289 nM
  TGI: > 100000 nM
786-0 renal
  GI50: 108 nM
  TGI: > 41700 nM
HS 578T breast
  GI50: 176 nM
  TGI: > 100000 nM
COLO 205 colon
  GI50: 98.8 nM
